Consider 2 compounds from patent publication US8735584B2 (Merck Patent GmbH, priority 2008, dated 2014).

Broadly, the IC50 is the midpoint of a concentration-inhibition curve. One may read the inhibition as the drop in the measured response relative to a control, in per cent.

Test [1] has as its target T1, GST-Aurora A (Homo sapiens, UniProt O14965).
T1 construct: N-terminal GST fusion with full length Aurora A (1-403 amino acids); purchased Carna Biosciences 05-101
T1 sequence (O14965 1-403): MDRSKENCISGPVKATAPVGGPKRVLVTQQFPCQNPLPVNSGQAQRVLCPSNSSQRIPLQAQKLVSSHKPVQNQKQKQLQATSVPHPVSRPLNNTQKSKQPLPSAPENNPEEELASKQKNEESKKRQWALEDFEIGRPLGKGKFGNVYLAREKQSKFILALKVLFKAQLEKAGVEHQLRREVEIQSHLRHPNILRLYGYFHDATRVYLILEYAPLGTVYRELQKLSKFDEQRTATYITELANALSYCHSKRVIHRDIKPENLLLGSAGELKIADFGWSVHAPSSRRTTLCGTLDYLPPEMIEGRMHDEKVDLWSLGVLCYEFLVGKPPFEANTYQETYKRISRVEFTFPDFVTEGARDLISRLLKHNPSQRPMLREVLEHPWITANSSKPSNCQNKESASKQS
The experiment in a line: Aurora A IC50, Caliper LC3000 mobility shift assay. It is filed as biochemical. The note with it: LC3000 method; 15 uM ATP (the KM value); read-out: Aurora Kinase A Activity (IC50). A digest of the protocol:
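GST-tagged full-length Aurora A (0.067 ng/ul) with 15 uM ATP (KM) and 1 uM FITC-LRRASLG peptide in 100 mM HEPES pH 7.5, 1 mM MgCl2, 1 mM DTT, Brij-35; 90 min at 25 C, EDTA stop. Off-chip mobility shift read of substrate-to-product conversion; IC50 from sigmoidal dose-response.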

Test [2] concerns the target T2, MET (Homo sapiens, UniProt P08581).
T2 construct: purchased Caliper Life Sciences
The experiment in a line: Desktop Profiler kinase panel, MET. It is filed as biochemical. Conditions: 10 micromolar concentration of the compound; read-out: Percent Inhibition MET. Here is the method: The Aurora assays described here are performed on two Caliper Life Sciences systems: the LC3000 and the Desktop Profiler. These provide data on enzyme activity via measurement of the relative amounts of phosphorylated or unphosphorylated fluorescently labelled substrate peptide at the end of an enzymatic reaction. These different states of peptide are resolved by applying a potential difference across the sample. The presence of the charged phosphate group on the product (as opposed to the substrate) causes a different peptide mobility between the two peptides. This is visualized by excitation of the fluorescent label on the substrate and product peptides and represented as peaks within the analysis software.
The Desktop Profiler utilizes the same principle as the LC3000 for calculating percentage conversion of a substrate to product. Caliper Life Sciences provides proprietary flash frozen pre-made 384 well plates containing selected kinases. Each column in the 384 well plate contains a particular selected kinase. A second plate, the ‘substrate plate’ contains a mix of fluorescently labeled peptide substrate and ATP. […]
Reading of the plate in the Profiler is identical to the LC3000, and the ratio between substrate and product peaks provides the activity of the enzyme in that well. […]

Where only a bound is given, the exact number is not on record here.

T2 sequence (P08581 25-1390): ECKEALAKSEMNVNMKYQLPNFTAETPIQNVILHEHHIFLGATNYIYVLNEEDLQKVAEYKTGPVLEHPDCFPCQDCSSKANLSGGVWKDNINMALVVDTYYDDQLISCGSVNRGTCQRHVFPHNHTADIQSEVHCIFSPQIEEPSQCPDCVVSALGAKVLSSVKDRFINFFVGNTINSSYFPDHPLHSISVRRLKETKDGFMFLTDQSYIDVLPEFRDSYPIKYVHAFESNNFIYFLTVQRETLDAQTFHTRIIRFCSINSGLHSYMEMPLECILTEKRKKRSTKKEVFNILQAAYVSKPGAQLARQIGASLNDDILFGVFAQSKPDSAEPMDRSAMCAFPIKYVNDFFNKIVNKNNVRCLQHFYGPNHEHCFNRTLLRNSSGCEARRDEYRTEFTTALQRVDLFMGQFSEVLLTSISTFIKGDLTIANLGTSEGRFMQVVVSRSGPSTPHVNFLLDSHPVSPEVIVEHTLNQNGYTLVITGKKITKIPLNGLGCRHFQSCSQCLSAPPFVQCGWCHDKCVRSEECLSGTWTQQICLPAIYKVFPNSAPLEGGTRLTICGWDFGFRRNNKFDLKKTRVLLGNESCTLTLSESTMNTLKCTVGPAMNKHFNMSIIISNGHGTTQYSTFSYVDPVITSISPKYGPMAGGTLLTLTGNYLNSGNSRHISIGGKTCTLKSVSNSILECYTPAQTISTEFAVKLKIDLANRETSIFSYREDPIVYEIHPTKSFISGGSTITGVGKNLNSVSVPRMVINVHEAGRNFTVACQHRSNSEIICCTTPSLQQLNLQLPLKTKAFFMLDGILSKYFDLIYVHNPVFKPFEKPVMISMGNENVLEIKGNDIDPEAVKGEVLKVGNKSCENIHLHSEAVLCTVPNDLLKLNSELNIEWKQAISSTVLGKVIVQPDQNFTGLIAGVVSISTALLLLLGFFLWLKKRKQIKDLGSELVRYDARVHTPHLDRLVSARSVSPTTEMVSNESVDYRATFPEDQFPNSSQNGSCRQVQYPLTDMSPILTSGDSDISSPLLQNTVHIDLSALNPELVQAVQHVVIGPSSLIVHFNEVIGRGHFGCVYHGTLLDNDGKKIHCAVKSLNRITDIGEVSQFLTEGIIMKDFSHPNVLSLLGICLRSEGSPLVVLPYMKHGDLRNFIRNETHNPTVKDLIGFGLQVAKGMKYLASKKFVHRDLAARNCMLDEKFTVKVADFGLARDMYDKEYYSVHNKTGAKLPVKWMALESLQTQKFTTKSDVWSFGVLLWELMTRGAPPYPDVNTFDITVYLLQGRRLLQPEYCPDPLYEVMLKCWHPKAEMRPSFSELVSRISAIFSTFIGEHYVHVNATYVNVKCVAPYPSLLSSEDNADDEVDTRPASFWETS

On to `O=c1[nH]c2ncccc2c2cc(Nc3cccc(F)c3)ccc12` [Example 31, 9-(3-Fluoro-phenylamino)-5H-benzo[c][1,8]naphthyridin-6-one], for which the IC50 in test [1] is above 100 nM.

For `CC(=O)Nc1ccc(Oc2ccc3c(=O)[nH]c4ncccc4c3c2)cc1` [Example 81, N-[4-(6-Oxo-5,6-dihydro-benzo[c][1,8]naphthyridin-9-yloxy)-phenyl]-acetamide], the inhibition at 10 µM in test [2] is above 90%.
